Earlier results, collected in US20050250828A1 (Entire Interest, priority 2004, published 2005).

How the values were obtained:
[1] = oral administration

solubility in methanol (methanol)	solubility in water (water)	absorption when administered orally [1]	SMILES
sparingly soluble	sparingly soluble		CCOc1nc2cccc(C(=O)OC(C)OC(=O)OC3CCCCC3)c2n1Cc1ccc(-c2ccccc2-c2nnn[nH]2)cc1 (racemic) [candesartan cilexetil, (±)-1-[[(cyclohexyloxy)carbonyl]oxy]ethyl-2-ethoxy-1-[[2′-(1H-tetrazol-5-yl)[1,1′biphenyl]-4-yl]methyl]-1H-benzimidazole-7-carboxylate]
		poorly absorbed	CCOc1nc2cccc(C(=O)O)c2n1Cc1ccc(-c2ccccc2-c2nnn[nH]2)cc1 [Candesartan, 2-ethoxy-1-[[2′-(1H-tetrazol-5-yl)biphenyl-4-yl]methyl]-1H-benzimidazole-7-carboxylic acid]
